According to EP4775209A1 (Ascentawits Pharmaceuticals, Ltd., priority 2023, dated 2025):

Columns and labels:
[1] = Toxicokinetics (D1+D8/21 Days) in monkeys; type: in vivo, cynomolgus monkeys
[2] = Phase I clinical trial of AST-3424 in China: blood pharmacokinetics compared with US data; type: in vivo, human; conditions: Chinese and American patients, printed as 'almost lower than'
[3] = Toxicokinetics (D1+D8/21 Days) in rats; type: in vivo, Sprague-Dawley (SD) rats; conditions: AST-3424 3, 10, 30 mg/kg on D1, D8, D22, D29
[4] = system: human lung cancer (H460-GFP) subcutaneous CDX model; experiment: Human lung cancer CDX efficacy model (QW×2 regimen); type: in vivo, nude mice; conditions: 15 mg/kg, BIW×4, I.V.; P<0.01
Protocol: Images of tumor burden in mice were non-invasively collected twice a week by a Fluor Vivo Model 100 imaging system, and the mean value of tumor area in each group was calculated based on imaging analysis results. […] The data from this experiment are the data for the H460 model in Example 3-1 of the aforementioned Patent Application 2 (see Table 5 and Figure 5 of this application).

[5] = system: HuPrime® lung cancer LU5173 subcutaneous xenograft model; conditions: day 32 after first administration, AST-3424 1 mg/kg QD×5, 16 days off
From the text: (§1) For the experimental procedures and relevant evaluation indicators of the aforementioned solid tumor animal efficacy models, please refer to Examples 7, 8, and 9 in Patent Application 1, namely PCT/US2016/062114, with Publication No. WO2017/087428 (corresponding to Chinese Application CN201680044608.1, with Publication No. CN108290911B), Examples 3 and 4 in Patent Application 2, namely PCT/CN2021/078115, with Publication No. WO2022178821, and Research Literature 1. The aforementioned non-clinical animal efficacy models (PDX) mentioned in the present application are all similar to those in the aforementioned literatures, and the specific operation procedures thereof are not described herein again.
The LU5173 is a HuPrime® xenograft model established from a lung cancer (small cell lung carcinoma) tumor of a patient.
Efficacy was evaluated based on the relative tumor growth inhibition (TGI, %), and safety was evaluated based on animal body weight changes and mortality.

[6] = system: HuPrime® pancreatic cancer PA2637 subcutaneous xenograft model; conditions: Day 36 after first administration, AST-3424 1 mg/kg QD×5, 16 days off
From the text: as §1
PA2637 is a HuPrime® xenograft model established from a pancreatic cancer tumor of a patient.
(§2) Efficacy was evaluated based on the relative tumor growth inhibition rate (TGI, %), and safety was evaluated based on animal body weight changes and mortality.

[7] = system: HuPrime® lung cancer LU5161 subcutaneous xenograft model; conditions: day 29 after first administration, AST-3424 1 mg/kg QD×5, 16 days off
From the text: as §1
LU5161 is a HuPrime® xenograft model established from a lung tumor (small cell lung cancer) of a patient.
as §2

[8] = system: HuPrime® pancreatic cancer PA1170 subcutaneous xenograft model; experiment: Pancreatic cancer PA1170 subcutaneous xenograft efficacy model; type: in vivo, BALB/c nude mice; conditions: 50 mg/kg, QD×30
[9] = system: HuPrime® pancreatic cancer PA9451 subcutaneous xenograft model; experiment: Pancreatic cancer PA9451 subcutaneous xenograft efficacy model; type: in vivo, BALB/c nude mice; conditions: 50 mg/kg, QD×30

With `O=P(O)(N1CC1)N1CC1` [AST-2660] the “exposure to AST-2660 as % of the AST-3424 exposure” value ([1]; Day 1) was 27.2%, the “exposure to AST-2660 as % of the AST-3424 exposure” value ([1]; Day 29) was 11.0% and the “concentrations after 8 hours” value [2] was “lower than 1 ng/ml”. The “exposure on Day 29 compared to Day 1” value [3] was “decreased”.
Work on `CC(=O)O[C@H]1C(=O)[C@@]2(C)[C@H]([C@H](OC(=O)c3ccccc3)[C@]3(O)C[C@H](OC(=O)[C@H](O)[C@@H](NC(=O)c4ccccc4)c4ccccc4)C(C)=C1C3(C)C)[C@]1(OC(C)=O)CO[C@@H]1C[C@@H]2O` [Taxol, reference compound] yielded a TGI [4] of 64%.
With `O=P1(NCCCl)OCCCN1CCCl` (stereo not drawn) [ifosfamide, reference compound] the “TGI (%)” value ([5]; QD×5 (P < 0.001), ifosfamide 6.0 mg/kg QD×5/week for 2 weeks (p > 0.05)) was 44.45%, the mean tumor volume ([5]; QD×5, ifosfamide 6.0 mg/kg QD×5/week for 2 weeks, vehicle 2276.68) was 1229.15 mm^3 and the “TGI (%)” value ([6]; QD×5 (P < 0.001), ifosfamide 60 mg/kg QD×5/week for 2 weeks (no statistical difference)) was 2.74%. For the same compound, the mean tumor volume ([6]; QD×5, ifosfamide 60 mg/kg QD×5/week for 2 weeks, vehicle 977.46) was 938.33 mm^3, the “TGI (%)” value ([7]; QD×5 (P < 0.001), ifosfamide 60 mg/kg QD×5/week for 2 weeks (p > 0.05)) was 27.39% and the mean tumor volume ([7]; QD×5, ifosfamide 60 mg/kg QD×5/week for 2 weeks, negative control 2238.97) was 1636.39 mm^3.
With `O=C(c1cc(Cc2n[nH]c(=O)c3ccccc23)ccc1F)N1CCN(C(=O)C2CC2)CC1` [olaparib, reference compound] the “TGI (%)” value ([8]; Day 30, P > 0.05) was 57.66%, the mean tumor volume ([8]; Day 30 after first administration) was 517.75 mm^3 and the “TGI (%)” value ([9]; Day 36, P < 0.001) was 47.88%. For the same compound, the mean tumor volume ([9]; Day 36 after first administration) was 344.84 mm^3.
